pEC50: −log10 of the molar value.
Columns and labels:
[1] = biological target: Putative P2Y purinoceptor 10 (Mus musculus) (UniProt Q8BFU7); assay: Agonist activity at mouse LPS2/P2Y10 transfected in HEK293-A cells co-transfected with AP-TGFalpha assessed as AP-TGFalpha release by TGFalpha shedding assay relative to LysoPS; assay type: functional, cell-based; details: filed as agonist
[2] = biological target: Putative P2Y purinoceptor 10 (Mus musculus, UniProt Q8BFU7); assay: Agonist activity at mouse LPS2/P2Y10 transfected in HEK293-A cells co-transfected with AP-TGFalpha assessed as AP-TGFalpha release by TGFalpha shedding assay; assay type: functional, cell-based; details: for pEC50: read-out: EC50; for EC50: read-out: pEC50 (converted)
[3] = biological target: Probable G-protein coupled receptor 34 (Mus musculus, UniProt Q9R1K6); assay: Agonist activity at mouse LPS1/GPR34 transfected in HEK293-A cells co-transfected with AP-TGFalpha assessed as AP-TGFalpha release by TGFalpha shedding assay; assay type: functional, cell-based
[4] = biological target: T1, Putative P2Y purinoceptor 10 (Homo sapiens, UniProt O00398); assay: Agonist activity at wildtype N-terminal FLAG-tagged human LPS2/P2Y10 transfected in HEK293-A cells co-transfected with AP-TGFalpha assessed as AP-TGFalpha release by TGFalpha shedding assay; assay type: functional, cell-based
[5] = biological target: Putative P2Y purinoceptor 10 (Homo sapiens, UniProt O00398, A163F); assay: Agonist activity at N-terminal FLAG-tagged human LPS2/P2Y10 A163F mutant transfected in HEK293-A cells co-transfected with AP-TGFalpha assessed as AP-TGFalpha release by TGFalpha shedding assay; assay type: cell-based
[6] = tested on: Putative P2Y purinoceptor 10 (Homo sapiens), O00398 [A163F]; assay: Agonist activity at N-terminal FLAG-tagged human LPS2/P2Y10 A163F mutant transfected in HEK293-A cells co-transfected with AP-TGFalpha assessed as AP-TGFalpha release by TGFalpha shedding assay relative to LysoPS; assay type: cell-based; details: filed as agonist
[7] = tested on: Putative P2Y purinoceptor 10 (Homo sapiens), O00398 [V159F]; assay: Agonist activity at N-terminal FLAG-tagged human LPS2/P2Y10 V159F mutant transfected in HEK293-A cells co-transfected with AP-TGFalpha assessed as AP-TGFalpha release by TGFalpha shedding assay relative to LysoPS; assay type: cell-based; details: filed as agonist
[8] = biological target: Putative P2Y purinoceptor 10 (Homo sapiens, UniProt O00398, V159F); assay: Agonist activity at N-terminal FLAG-tagged human LPS2/P2Y10 V159F mutant transfected in HEK293-A cells co-transfected with AP-TGFalpha assessed as AP-TGFalpha release by TGFalpha shedding assay; assay type: cell-based
[9] = biological target: T1, Putative P2Y purinoceptor 10; assay: Agonist activity at wildtype N-terminal FLAG-tagged human LPS2/P2Y10 transfected in HEK293-A cells co-transfected with AP-TGFalpha assessed as AP-TGFalpha release by TGFalpha shedding assay relative to LysoPS; assay type: functional, cell-based; details: filed as agonist
[10] = biological target: T1, Putative P2Y purinoceptor 10; assay: Agonist activity at human LPS2/P2Y10 transfected in HEK293-A cells co-transfected with AP-TGFalpha assessed as AP-TGFalpha release by TGFalpha shedding assay relative to LysopPS; assay type: functional, cell-based; details: filed as agonist
[11] = biological target: T1, Putative P2Y purinoceptor 10; assay: Agonist activity at human LPS2/P2Y10 transfected in HEK293-A cells co-transfected with AP-TGFalpha assessed as AP-TGFalpha release by TGFalpha shedding assay; assay type: functional, cell-based; details: for pEC50: read-out: EC50
[12] = biological target: Probable G-protein coupled receptor 34 (Mus musculus) (UniProt Q9R1K6); assay: Agonist activity at mouse LPS1/GPR34 transfected in HEK293-A cells co-transfected with AP-TGFalpha assessed as AP-TGFalpha release by TGFalpha shedding assay relative to LysoPS; assay type: functional, cell-based; details: filed as agonist
Chain of Probable G-protein coupled receptor 34 (Mus musculus) (Q9R1K6 whole entry): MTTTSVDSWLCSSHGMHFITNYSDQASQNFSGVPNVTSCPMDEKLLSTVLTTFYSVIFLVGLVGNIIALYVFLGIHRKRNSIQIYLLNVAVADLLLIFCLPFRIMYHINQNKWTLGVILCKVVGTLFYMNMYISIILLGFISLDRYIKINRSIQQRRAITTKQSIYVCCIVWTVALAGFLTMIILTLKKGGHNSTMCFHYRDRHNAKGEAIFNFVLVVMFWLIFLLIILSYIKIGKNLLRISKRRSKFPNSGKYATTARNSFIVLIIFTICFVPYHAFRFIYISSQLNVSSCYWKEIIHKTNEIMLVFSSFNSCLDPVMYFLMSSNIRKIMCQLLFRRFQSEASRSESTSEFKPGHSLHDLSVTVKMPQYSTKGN

Chain of Putative P2Y purinoceptor 10 (Homo sapiens), O00398 [V159F] (O00398 whole entry V159F): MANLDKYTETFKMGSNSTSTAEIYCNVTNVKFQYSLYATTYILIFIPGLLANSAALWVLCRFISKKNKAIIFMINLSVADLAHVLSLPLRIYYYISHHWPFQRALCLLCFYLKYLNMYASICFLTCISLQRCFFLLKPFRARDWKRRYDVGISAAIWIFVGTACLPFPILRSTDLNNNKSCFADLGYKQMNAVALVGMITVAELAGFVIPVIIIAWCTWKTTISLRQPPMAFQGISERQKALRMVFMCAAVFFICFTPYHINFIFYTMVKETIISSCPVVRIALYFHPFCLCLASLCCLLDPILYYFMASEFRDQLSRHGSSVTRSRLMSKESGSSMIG
Chain of Putative P2Y purinoceptor 10 (Homo sapiens, UniProt O00398, V159F) (O00398 whole entry V159F): as above
T1 sequence (O00398 whole entry): as the sequence (O00398 whole entry V159F) above, with F159V counted along it
Chain of Putative P2Y purinoceptor 10 (Homo sapiens, UniProt O00398, A163F) (O00398 whole entry A163F): as the sequence (O00398 whole entry V159F) above, with F159V, A163F counted along it
Chain of Putative P2Y purinoceptor 10 (Homo sapiens), O00398 [A163F] (O00398 whole entry A163F): as the sequence (O00398 whole entry V159F) above, with F159V, A163F counted along it
Chain of Putative P2Y purinoceptor 10 (Mus musculus, UniProt Q8BFU7) (Q8BFU7 whole entry): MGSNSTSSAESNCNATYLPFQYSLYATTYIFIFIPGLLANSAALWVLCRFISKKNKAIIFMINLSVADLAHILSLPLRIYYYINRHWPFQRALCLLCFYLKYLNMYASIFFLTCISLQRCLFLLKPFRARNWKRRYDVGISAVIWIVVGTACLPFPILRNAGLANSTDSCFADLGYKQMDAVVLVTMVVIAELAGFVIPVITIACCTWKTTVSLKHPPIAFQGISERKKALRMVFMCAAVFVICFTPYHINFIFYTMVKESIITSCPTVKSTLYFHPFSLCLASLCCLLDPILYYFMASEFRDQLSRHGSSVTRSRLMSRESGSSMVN
Chain of Putative P2Y purinoceptor 10 (Mus musculus) (Q8BFU7 whole entry): as above
Chain of Probable G-protein coupled receptor 34 (Q9R1K6 whole entry): as the sequence (Q9R1K6 whole entry) above

| Structure (SMILES) | Emax [1] [%] | pEC50 [2] | also measured |
| --- | --- | --- | --- |
| CC(C)(C)c1cc(Oc2ccccc2CCC(=O)OCCCOP(=O)(O)OC[C@H](N)C(=O)O)cc(C(C)(C)C)c1 | 125 | 6.70 |  |
| CCc1ccccc1Oc1ccccc1CCC(=O)OCCCOP(=O)(O)OC[C@H](N)C(=O)O | 78 | 6.77 |  |
| CC(C)(C)c1cc(-c2cccc(COc3ccccc3CCC(=O)OCCCOP(=O)(O)OC[C@H](N)C(=O)O)c2)cc(C(C)(C)C)c1 | 109 | 7.55 | pEC50 [3]: < 5.52 |
| CC(C)(C)c1ccc(Oc2ccccc2CCC(=O)OCCCOP(=O)(O)OC[C@H](N)C(=O)O)cc1 | 123 | 7.17 | pEC50 [4]: 6.74; pEC50 [5]: 6.33; Emax [6]: 113%; Emax [7]: 131%; pEC50 [8]: 6.60; Emax [9]: 119% |
| N[C@@H](COP(=O)(O)OCCCOC(=O)CCc1ccccc1Oc1ccc(O)cc1)C(=O)O |  | < 8.52 | EC50 [2]: < 3.16 µM |
| N[C@@H](COP(=O)(O)OCCCOC(=O)CCc1ccccc1Oc1cccc(-c2ccccc2)c1)C(=O)O | 109 | 7.54 | Emax [10]: 133%; pEC50 [11]: 7.21 |
| Cc1ccccc1Oc1ccccc1CCC(=O)OCCCOP(=O)(O)OC[C@H](N)C(=O)O | 70 | 6.85 |  |
| N[C@@H](COP(=O)(O)OCCOC(=O)CC(=O)Cc1ccccc1Oc1ccc(-c2ccccc2)cc1)C(=O)O |  | < 8.52 | EC50 [2]: 6.03 µM |
| N[C@@H](COP(=O)(O)OCCCOC(=O)CCc1ccccc1Oc1ccccc1-c1ccccc1)C(=O)O | 105 | 6.05 | pEC50 [11]: < 8.52; EC50 ([11]; read-out: pEC50 (converted)): 5.13 µM |
| N[C@@H](COP(=O)(O)OCCCOC(=O)CCc1ccccc1Oc1cc(-c2ccccc2)cc(-c2ccccc2)c1)C(=O)O | 121 | 7.64 | Emax [10]: 152%; pEC50 [11]: 6.92 |
| N[C@@H](COP(=O)(O)OCCCCOC(=O)CC(=O)Cc1ccccc1Oc1ccc(-c2ccccc2)cc1)C(=O)O | 98 | 6.85 |  |
| CCc1ccccc1-c1ccc(Oc2ccccc2CCC(=O)OCCCOP(=O)(O)OC[C@H](N)C(=O)O)cc1 | 92 | 7.74 |  |
| N[C@@H](COP(=O)(O)OCCCOC(=O)CCc1ccccc1Oc1ccccc1)C(=O)O | 93 | 6.40 | pEC50 [4]: < 5.52; pEC50 [5]: 5.80; Emax [6]: 104%; Emax [7]: 98%; pEC50 [8]: 5.82 |
| N[C@@H](COP(=O)(O)OCCCCCOC(=O)CC(=O)CC(=O)Cc1ccccc1Oc1ccc(-c2ccccc2)cc1)C(=O)O | 96 | 7.00 |  |
| N[C@@H](COP(=O)(O)OCCCCOC(=O)CC(=O)CC(=O)Cc1ccccc1Oc1ccc(-c2ccccc2)cc1)C(=O)O | 118 | 7.51 |  |
| N[C@@H](COP(=O)(O)OCCCCCOC(=O)CC(=O)Cc1ccccc1Oc1ccc(-c2ccccc2)cc1)C(=O)O | 105 | 6.62 |  |

| Structure (SMILES) | Emax [1] [%] | pEC50 [2] | also measured |
| --- | --- | --- | --- |
| N[C@@H](COP(=O)(O)OCCOC(=O)CC(=O)CC(=O)Cc1ccccc1Oc1ccc(-c2ccccc2)cc1)C(=O)O | 112 | 6.70 |  |
| N[C@@H](COP(=O)(O)OC1CCCO[C@@H]1COC(=O)CCc1ccccc1OCc1cccc(Oc2ccccc2)c1)C(=O)O (stereo partly drawn) |  |  | Emax [12]: 117%; pEC50 [3]: 6.74 |
| N[C@@H](COP(=O)(O)OCCCOC(=O)CCc1ccccc1OCc1cccc(Oc2ccccc2)c1)C(=O)O | 63 | 7.05 | Emax [12]: 124%; pEC50 ([3]; hek293-a): 6.66; EC50 [2]: 0.0933 µM |
| Cc1ccc(Oc2ccccc2CCC(=O)OCCCOP(=O)(O)OC[C@H](N)C(=O)O)cc1 | 88 | 6.85 | pEC50 [4]: 6.09; pEC50 [5]: 6.46; Emax [6]: 92%; Emax [7]: 117%; pEC50 [8]: 6.18; Emax [9]: 114% |
| CC(C)(C)c1ccc(-c2cccc(COc3ccccc3CCC(=O)OCCCOP(=O)(O)OC[C@H](N)C(=O)O)c2)cc1 | 99 | 7.46 | Emax [12]: 107%; pEC50 [3]: 6.02 |
| N[C@@H](COP(=O)(O)OCCCOC(=O)CCc1ccccc1Oc1ccc(C23C[C@H]4C[C@@H](C2)C[C@@H](C3)C4)cc1)C(=O)O | 107 | 7.24 | pEC50 [4]: 6.77; pEC50 [5]: 6.41; Emax [6]: 137%; Emax [7]: 128%; pEC50 [8]: 6.57; Emax [9]: 120% |
| Cc1cc(C)cc(Oc2ccccc2CCC(=O)OCCCOP(=O)(O)OC[C@H](N)C(=O)O)c1 | 114 | 6.89 |  |
| CCCCCCCC/C=C\CCCCCCCC(=O)OCCCOP(=O)(O)OC[C@H](N)C(N)=O | 112 | 7.62 | pEC50 [3]: < 5.52 |
| Cc1cccc(Oc2ccccc2CCC(=O)OCCCOP(=O)(O)OC[C@H](N)C(=O)O)c1 | 78 | 6.68 |  |
| CCc1ccc(Oc2ccccc2CCC(=O)OCCCOP(=O)(O)OC[C@H](N)C(=O)O)cc1 | 72 | 6.09 |  |
| CC(C)(C)c1cccc(-c2ccc(Oc3ccccc3CCC(=O)OCCCOP(=O)(O)OC[C@H](N)C(=O)O)cc2)c1 | 115 | 7.85 |  |
| Cc1cccc(COc2ccccc2CCC(=O)OCCCOP(=O)(O)OC[C@H](N)C(=O)O)c1 | 114 | 6.47 |  |
| Cc1cc(C)cc(-c2cccc(COc3ccccc3CCC(=O)OCCCOP(=O)(O)OC[C@H](N)C(=O)O)c2)c1 | 114 | 7.34 | pEC50 [3]: < 5.52 |
| N#Cc1ccc(Oc2ccccc2CCC(=O)OCCCOP(=O)(O)OC[C@H](N)C(=O)O)cc1 |  | < 8.52 | EC50 [2]: < 3.16 µM |
| CC(C)(C)c1cccc(Oc2ccccc2CCC(=O)OCCCOP(=O)(O)OC[C@H](N)C(=O)O)c1 | 113 | 6.40 |  |

Further lines, with some results ahead:

| Emax [1] [%] | pEC50 [2] | Structure (SMILES) | also measured |
| --- | --- | --- | --- |
| 59 | 8.80 | Nc1ccc(Oc2ccccc2CCC(=O)OCCCOP(=O)(O)OC[C@H](N)C(=O)O)cc1 | EC50 [2]: 1.58 µM |
| 68 | 8.28 | N[C@@H](COP(=O)(O)OCCCOC(=O)CCc1ccccc1Oc1ccc(-c2ccc(C34C[C@H]5C[C@@H](C3)C[C@@H](C4)C5)cc2)cc1)C(=O)O |  |
| 78 | 8.52 | CC(C)(C)c1ccc(-c2ccc(Oc3ccccc3CCC(=O)OCCCOP(=O)(O)OC[C@H](N)C(=O)O)cc2)cc1 |  |
| 98 | 8.59 | CCc1ccc(-c2ccc(Oc3ccccc3CCC(=O)OCCCOP(=O)(O)OC[C@H](N)C(=O)O)cc2)cc1 |  |
| 70 | 8.43 | N[C@@H](COP(=O)(O)OCCCOC(=O)CCc1ccccc1Oc1ccc(-c2ccc(-c3ccccc3)cc2)cc1)C(=O)O | Emax [10]: 89%; pEC50 [11]: 8.10 |
| 108 | 7.96 | Cc1ccc(-c2ccc(Oc3ccccc3CCC(=O)OCCCOP(=O)(O)OC[C@H](N)C(=O)O)cc2)cc1 |  |
| 111 | 8.04 | N[C@@H](COP(=O)(O)OCCCOC(=O)CCc1ccccc1Oc1ccc(-c2ccccc2)cc1)C(=O)O | pEC50 [4]: 7.28; Emax [10]: 133%; pEC50 [5]: 7.48; Emax [6]: 122%; Emax [7]: 131%; pEC50 [8]: 7.59; pEC50 [11]: 7.15; Emax [9]: 125% |
| 99 | 8.96 | N[C@@H](COP(=O)(O)OCCCOC(=O)CC(=O)Cc1ccccc1Oc1ccc(-c2ccccc2)cc1)C(=O)O | EC50 [2]: 1.07 µM |
| 87 | 8.17 | N[C@@H](COP(=O)(O)OCCCOC(=O)CCc1ccccc1Oc1ccc(-c2ccccc2-c2ccccc2)cc1)C(=O)O | Emax [10]: 113%; pEC50 [11]: 7.00 |
| 111 | 8.57 | CCCCCCCCCCCOc1ccccc1CCC(=O)OCCCOP(=O)(O)OC[C@H](N)C(N)=O | Emax [12]: 94%; pEC50 [3]: 5.80 |
| 113 | 8.15 | CCCCCCOc1cccc(COc2ccccc2CCC(=O)OCCCOP(=O)(O)OC[C@H](N)C(N)=O)c1 | pEC50 [3]: < 5.52 |
| 131 | 8.24 | N[C@@H](COP(=O)(O)OCCCOC(=O)CCc1ccccc1OCc1cccc(-c2ccccc2)c1)C(=O)O | pEC50 [3]: < 5.52 |
| 94 | 8.82 | CCCCCCCCCCCOc1ccccc1CCC(=O)OCC(F)(F)COP(=O)(O)OC[C@H](N)C(=O)O |  |

From ChEMBL document CHEMBL5360551, “Exploration of LPS2 agonist binding modes using the combination of a new hydrophobic scaffold and homology modeling” (Eur J Med Chem, 2023)
